The results in this text go back to ChEMBL document CHEMBL1141389, “Bioactive diterpenes from Orthosiphon labiatus and Salvia africana-lutea” (J Nat Prod, 2007).

Series [1] has as its system MCF7. The experiment in a line: Cytotoxicity against human MCF7 cells at 650 uM. It counts as cell-based. The conditions noted are these: mcf7, 650 µM.
Series [2] deals with Mycobacterium tuberculosis. The experiment in a line: Antimycobacterial activity against Mycobacterium tuberculosis H37Rv ATCC 27294. It counts as functional.
Series [3] has as its system Mycobacterium tuberculosis. In words: Antimycobacterial activity against Mycobacterium tuberculosis H37Rv ATCC 27294 at 650 uM. The format is functional, organism-based.
In series [4] the test system is MCF7. In words: Cytotoxicity against human MCF7 cells. The format is cell-based.

Converted amounts (≈) assume the structure as drawn. The source made the active and inactive calls. The calls are words filed in the database; no cut-off is given here.

Consider `C=C/C(C)=C/C[C@H]1C(=C)CC[C@@H]2[C@]1(C)C[C@@H](O)C[C@@]2(C)C(=O)O`, for which the Activity result with MCF7 [1] was “Not Active”. In series [2], this molecule gave a minimum inhibitory concentration (MIC) of 157 µM (≈ 50 µg/mL).
`CC(C)c1cc2c(c(O)c1O)[C@@]13CCCC(C)(C)[C@@H]1C[C@@H]2OC3=O` [CARNOSOL]: the outcome in series [3] was inactive. The Activity result in the series on MCF7 [1] is “Not Active”.
For the molecule `C=C/C(C)=C/C[C@H]1C(=C)CC[C@H]2[C@](C)(CO)C[C@H](O)C[C@]12C`, in series [3], the result was inactive. The molecule also showed a concentration for half-maximal inhibition (IC50) with MCF7 [4] of 82 µM.
Consider `COC(=O)[C@]12CCCC(C)(C)[C@@H]1CCc1cc(C(C)C)c(OC)c(O)c12`, for which the lowest concentration to inhibit growth in series [2] (MIC) was 28 µM (≈ 10.1 µg/mL). Besides, it took 69 µM to reach half-maximal inhibition in the series on MCF7 [4] (IC50).
